Laboratory results taken from PMC5079557, “Expression of Soluble Forms of Yeast Diacylglycerol Acyltransferase 2 That Integrate a Broad Range of Saturated Fatty Acids in Triacylglycerols” (PLoS ONE, 2016).
One block for each molecule: values may come before it.

How the values were obtained:
[1] = biological target: MBP-Dga1pΔ85 construct (Yarrowia lipolytica); test: SEC; Hiload 16/60 Superdex 200 column, 4°C; amylose-purified fractions incubated overnight with lysis buffer (50 mM Tris-HCl pH 7.5, 150 mM NaCl, 5% glycerol, 1 mM EDTA, 1 mM TCEP) with 0.5% N-lauroyl sarcosine before the column; major peak taken as a dimer
[2] = biological target: T1, Dga1pΔ19 (Yarrowia lipolytica, UniProt Q6C3R2); test: fluorescent DGAT assay, HPTLC of NBD-TG; assay type: biochemical; details: 1 mM niacin; 100 μM C18:0-CoA, 100 μM NBD-DG, 20 mM MgCl2, Hepes pH 7.6, 31°C; noncompetitive (per cited literature)
T1 construct: gene YALI0_E32769g; lacks 19 N-terminal residues of the printed 515-residue protein; N-terminal MBP fusion kept, ~99 kDa, pMalc2X, E. coli BL21 (DE3) pLysS; dimer on SEC
T1 sequence (Q6C3R2 entry or part of it, stated change not applied): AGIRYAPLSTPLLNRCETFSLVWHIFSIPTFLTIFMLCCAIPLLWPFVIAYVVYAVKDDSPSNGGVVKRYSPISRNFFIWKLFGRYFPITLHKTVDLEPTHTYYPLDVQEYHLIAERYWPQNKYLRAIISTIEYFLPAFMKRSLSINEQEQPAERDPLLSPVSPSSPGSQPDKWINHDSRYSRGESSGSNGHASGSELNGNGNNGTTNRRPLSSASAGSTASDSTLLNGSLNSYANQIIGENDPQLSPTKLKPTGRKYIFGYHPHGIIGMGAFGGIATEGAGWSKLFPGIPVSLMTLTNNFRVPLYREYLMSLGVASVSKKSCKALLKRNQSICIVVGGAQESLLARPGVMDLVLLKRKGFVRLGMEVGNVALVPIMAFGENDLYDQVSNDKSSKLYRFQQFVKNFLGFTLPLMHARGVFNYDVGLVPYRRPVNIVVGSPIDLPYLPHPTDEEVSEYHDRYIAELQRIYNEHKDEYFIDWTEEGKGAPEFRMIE

[3] = biological target: T2, Dga1pΔ85 (Yarrowia lipolytica, UniProt Q6C3R2); test: fluorescent DGAT assay, HPTLC of NBD-TG; assay type: biochemical; details: 1 mM niacin; 100 μM C18:0-CoA, 100 μM NBD-DG, 20 mM MgCl2, Hepes pH 7.6, 31°C; noncompetitive (per cited literature)
T2 construct: gene YALI0_E32769g; lacks 85 N-terminal residues (incl. putative TM domain) of the 515-residue protein; N-terminal MBP fusion kept, ~90 kDa, pMalc2X, E. coli BL21 (DE3) pLysS; dimer on SEC
T2 sequence (Q6C3R2 entry or part of it, stated change not applied): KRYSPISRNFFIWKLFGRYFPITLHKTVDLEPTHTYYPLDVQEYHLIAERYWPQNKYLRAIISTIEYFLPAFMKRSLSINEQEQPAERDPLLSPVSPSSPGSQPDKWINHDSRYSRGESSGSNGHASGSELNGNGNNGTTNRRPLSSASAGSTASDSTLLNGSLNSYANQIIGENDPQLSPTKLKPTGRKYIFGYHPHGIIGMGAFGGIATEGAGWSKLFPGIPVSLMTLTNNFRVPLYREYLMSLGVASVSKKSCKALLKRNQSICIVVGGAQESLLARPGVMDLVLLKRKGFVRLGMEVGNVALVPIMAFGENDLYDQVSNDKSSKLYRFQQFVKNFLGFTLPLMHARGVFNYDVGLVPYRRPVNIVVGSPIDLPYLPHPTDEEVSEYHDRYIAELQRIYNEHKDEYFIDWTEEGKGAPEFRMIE

[4] = biological target: T1, Dga1pΔ19; test: fluorescent DGAT assay, HPTLC of NBD-TG; assay type: biochemical; details: acyl donor; 100 μM NBD-DG, 20 mM MgCl2, Hepes pH 7.6, 0.01% tween 20, 31°C
[5] = biological target: T2, Dga1pΔ85; test: fluorescent DGAT assay, HPTLC of NBD-TG; assay type: biochemical
[6] = biological target: MBP-Dga1pΔ19 fusion protein (Yarrowia lipolytica); test: SEC; Hiload 16/60 Superdex 200 column, 4°C; amylose-purified fractions incubated overnight with lysis buffer (50 mM Tris-HCl pH 7.5, 150 mM NaCl, 5% glycerol, 1 mM EDTA, 1 mM TCEP) with 0.5% N-lauroyl sarcosine before the column; major peak taken as a dimer

- stoichiometry N [1]: 2
Molecule: MBP-Dga1pΔ85 construct (domain or fragment)

Molecule: O=C(O)c1cccnc1 [niacin]
- % decrease of TG production at 1 mM [2]: 70%
- % decrease of TG production at 1 mM [3]: 99.5%

Molecule: CCCCCCCCCCCCCCCCCC(=O)SCCNC(=O)CCNC(=O)[C@H](O)C(C)(C)COP(=O)(O)OP(=O)(O)OC[C@H]1O[C@@H](n2cnc3c(N)ncnc32)[C@H](O)[C@@H]1OP(=O)(O)O [stearoyl-CoA]
- fluorescent DGAT assay, HPTLC of NBD-TG [4]: C18:0-CoA was an efficient acyl donor for both enzyme versions
- fluorescent DGAT assay, HPTLC of NBD-TG ([5]; acyl donor, 100 μM NBD-DG, 20 mM MgCl2, Hepes pH 7.6, 0.01% tween 20, 31°C): C18:0-CoA was an efficient acyl donor for both enzyme versions

Molecule: CCCCCCCCCC(=O)O[C@@H](CO)COC(=O)CCCCCCCCCNc1ccc([N+](=O)[O-])c2nonc12 [NBD-DG]
- fluorescent DGAT assay, HPTLC of NBD-TG ([5]; acyl acceptor, labelled compound, 100 μM with C18:0-CoA, 20 mM MgCl2, Hepes pH 7.6, 31°C): both recombinant enzymes harbored increasing DGAT activities in the presence of various C18:0-CoA concentrations

- stoichiometry N [6]: 2
Molecule: MBP-Dga1pΔ19 fusion protein (domain or fragment)
